Data from publication PMC7368294 (Proceedings of the National Academy of Sciences of the …, 2020).
Read-outs that look alike come from different tables or passages of the source.

Molecular target: T1, Btα1/Btα8/Btβ1 nAChR (Bombus terrestris, UniProt A0A9B0BGM1+A0A9B0F4H3+A0A9B2JDZ7)
T1 sequence (A0A9B0F4H3 44-615): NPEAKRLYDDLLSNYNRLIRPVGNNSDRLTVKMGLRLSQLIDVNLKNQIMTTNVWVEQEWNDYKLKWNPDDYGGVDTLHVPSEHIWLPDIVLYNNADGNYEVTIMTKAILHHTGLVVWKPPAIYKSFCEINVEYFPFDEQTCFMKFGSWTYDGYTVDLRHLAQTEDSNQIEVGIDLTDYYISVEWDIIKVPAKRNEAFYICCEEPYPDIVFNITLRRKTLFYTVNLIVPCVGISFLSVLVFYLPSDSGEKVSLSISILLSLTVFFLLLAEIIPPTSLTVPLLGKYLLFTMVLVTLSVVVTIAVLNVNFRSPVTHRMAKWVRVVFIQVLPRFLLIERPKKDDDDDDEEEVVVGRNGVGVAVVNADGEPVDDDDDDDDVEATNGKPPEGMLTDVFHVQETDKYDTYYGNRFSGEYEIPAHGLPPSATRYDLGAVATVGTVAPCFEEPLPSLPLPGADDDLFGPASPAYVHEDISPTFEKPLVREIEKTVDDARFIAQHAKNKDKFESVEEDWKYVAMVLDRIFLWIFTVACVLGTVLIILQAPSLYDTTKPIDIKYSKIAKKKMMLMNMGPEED
T1 sequence (A0A9B2JDZ7 22-535): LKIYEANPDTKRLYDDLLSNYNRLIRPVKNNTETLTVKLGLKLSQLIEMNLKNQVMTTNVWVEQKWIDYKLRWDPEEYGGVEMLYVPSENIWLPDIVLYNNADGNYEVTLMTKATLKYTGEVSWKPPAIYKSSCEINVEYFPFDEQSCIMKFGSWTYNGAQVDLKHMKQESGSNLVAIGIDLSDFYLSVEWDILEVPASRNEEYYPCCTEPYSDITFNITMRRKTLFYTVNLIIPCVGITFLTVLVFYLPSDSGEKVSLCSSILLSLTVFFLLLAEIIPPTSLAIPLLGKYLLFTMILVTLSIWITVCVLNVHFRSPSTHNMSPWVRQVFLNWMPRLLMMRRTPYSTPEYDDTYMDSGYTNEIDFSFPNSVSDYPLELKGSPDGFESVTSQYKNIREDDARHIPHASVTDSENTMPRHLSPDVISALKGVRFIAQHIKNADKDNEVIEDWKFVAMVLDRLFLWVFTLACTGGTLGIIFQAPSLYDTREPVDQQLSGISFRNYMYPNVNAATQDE
T1 sequence (A0A9B0BGM1 19-519): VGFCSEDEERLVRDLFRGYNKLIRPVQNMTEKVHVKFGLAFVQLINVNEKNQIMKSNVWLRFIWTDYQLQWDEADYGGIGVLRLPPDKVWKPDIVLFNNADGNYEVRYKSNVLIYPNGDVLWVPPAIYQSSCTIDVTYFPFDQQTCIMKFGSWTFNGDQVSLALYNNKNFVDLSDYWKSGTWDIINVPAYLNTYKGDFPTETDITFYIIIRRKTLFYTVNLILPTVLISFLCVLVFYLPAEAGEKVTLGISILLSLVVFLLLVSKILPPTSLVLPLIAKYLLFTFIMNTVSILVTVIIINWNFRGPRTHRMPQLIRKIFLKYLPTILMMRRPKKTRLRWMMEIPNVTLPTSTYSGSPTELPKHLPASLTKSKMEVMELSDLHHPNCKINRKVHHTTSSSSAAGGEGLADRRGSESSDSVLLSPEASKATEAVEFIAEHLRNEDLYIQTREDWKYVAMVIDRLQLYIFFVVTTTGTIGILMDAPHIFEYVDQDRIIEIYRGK
Test: cell-based
Set-up: species or system Xenopus laevis oocytes
Settings: Oocyte

## CN/C(=N\[N+](=O)[O-])NCc1cnc(Cl)s1 [clothianidin]
read-out: Clothianidin / Imax
  Emax: 75.9 ± 1.8%

## N#C/N=C1\SCCN1Cc1ccc(Cl)nc1 [thiacloprid]
read-out: Thiacloprid / Imax
  Emax: 9.4 ± 0.8%

## O=[N+]([O-])NC1=NCCN1Cc1ccc(Cl)nc1 [imidacloprid]
read-out: Imidacloprid / Imax
  Emax: 10.7 ± 1%
